Laboratory results published in patent US10508104B2, “6-hydroxy-5-(phenyl/heteroarylsulfonyl)pyrimidin-4(1H)-one as APJ agonists” (Bristol-Myers Squibb Company, priority 2016, dated 2019).

Molecular target: human APJ receptor (Homo sapiens (Human), UniProt P35414)
Assay: Intracellular cAMP accumulation assay (APJ hcAMP, HTRF)
Assay type: cell-based
Settings: HEK293 cells stably expressing human APJ receptor; inhibition of forskolin-mediated cAMP production; read-out: Human APJ cAMP EC50 Potency range
Procedure, shortened: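 HEK293 cells stably expressing human APJ, 5,000 per well, incubated 30 min at rt with compound, […] and 2 μM forskolin. cAMP measured by HTRF against a cAMP standard curve as inhibition of forskolin-driven production. EC50 from variable-slope sigmoidal fit.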

Chain of human APJ receptor (P35414 whole entry): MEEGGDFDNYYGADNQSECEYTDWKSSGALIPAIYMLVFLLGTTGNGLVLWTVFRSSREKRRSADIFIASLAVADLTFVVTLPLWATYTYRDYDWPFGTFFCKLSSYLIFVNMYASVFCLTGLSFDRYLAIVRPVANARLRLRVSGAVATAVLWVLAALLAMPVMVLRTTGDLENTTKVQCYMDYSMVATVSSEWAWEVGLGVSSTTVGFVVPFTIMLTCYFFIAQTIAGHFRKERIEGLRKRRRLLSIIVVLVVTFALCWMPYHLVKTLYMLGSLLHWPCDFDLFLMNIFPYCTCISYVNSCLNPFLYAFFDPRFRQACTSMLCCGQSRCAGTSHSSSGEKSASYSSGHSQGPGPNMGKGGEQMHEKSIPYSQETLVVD

SMILES	EC50
CCCCc1nc(=O)c(S(=O)(=O)c2ccc(-c3cccnc3C)cc2)c(O)n1[C@@H](CC)c1ccccc1F [Example 430, 2-butyl-1-[(1S)-1-(2-fluorophenyl)propyl]-6-hydroxy-5-[4-(2-methylpyridin-3-yl)benzenesulfonyl]-1,4-dihydropyrimidin-4-one]	0.01 to 10 nM
CCCCc1nc(=O)c(S(=O)(=O)c2ccc(-c3ccc(F)nc3C)cc2)c(O)n1[C@@H](CC)c1ccccc1F [Example 431, 2-butyl-5-[4-(6-fluoro-2-methylpyridin-3-yl)benzenesulfonyl]-1-[(1S)-1-(2-fluorophenyl)propyl]-6-hydroxy-1,4-dihydropyrimidin-4-one]	0.01 to 10 nM
CCCCc1nc(=O)c(S(=O)(=O)c2ccc(-c3ccnc(F)c3C)cc2)c(O)n1[C@@H](CC)c1ccccc1F [Example 432, 2-butyl-5-[4-(2-fluoro-3-methylpyridin-4-yl)benzenesulfonyl]-1-[(1S)-1-(2-fluorophenyl)propyl]-6-hydroxy-1,4-dihydropyrimidin-4-one]	0.01 to 10 nM
CCCCc1nc(=O)c(S(=O)(=O)c2ccc(-c3ccc(F)nc3C)cc2)c(O)n1[C@@H](CC)c1cc(F)cc(F)c1 [Example 433, 2-butyl-1-[(1S)-1-(3,5-difluorophenyl)propyl]-5-[4-(6-fluoro-2-methylpyridin-3-yl)benzenesulfonyl]-6-hydroxy-1,4-dihydropyrimidin-4-one]	0.01 to 10 nM
CCOCc1nc(=O)c(S(=O)(=O)c2ccc(-c3ccncc3C)cc2)c(O)n1[C@@H](CC)c1cccc(C#N)c1 [Example 434, 3-[(1S)-1-[2-(ethoxymethyl)-6-hydroxy-5-[4-(3-methylpyridin-4-yl)benzenesulfonyl]-4-oxo-1,4-dihydropyrimidin-1-yl]propyl]benzonitrile]	0.01 to 10 nM
CCOCc1nc(=O)c(S(=O)(=O)c2ccc(-c3cccnc3C)cc2)c(O)n1[C@@H](CC)c1cccc(C#N)c1 [Example 435, 3-[(1S)-1-[2-(ethoxymethyl)-6-hydroxy-5-[4-(2-methylpyridin-3-yl)benzenesulfonyl]-4-oxo-1,4-dihydropyrimidin-1-yl]propyl]benzonitrile]	0.01 to 10 nM
CCOCc1nc(=O)c(S(=O)(=O)c2ccc(-c3ccc(F)nc3C)cc2)c(O)n1[C@@H](CC)c1cccc(C#N)c1 [Example 436, 3-[(1S)-1-[2-(ethoxymethyl)-5-[4-(6-fluoro-2-methylpyridin-3-yI)benzenesulfonyl]-6-hydroxy-4-oxo-1,4-dihydropyrimidin-1-yl]propyl]benzonitrile]	0.01 to 10 nM
CCOCc1nc(=O)c(S(=O)(=O)c2ccc(-c3ccnc(F)c3C)cc2)c(O)n1[C@@H](CC)c1cccc(C#N)c1 [Example 437, 3-[(1S)-1-[2-(ethoxymethyl)-5-[4-(2-fluoro-3-methylpyridin-4-yl)benzenesulfonyl]-6-hydroxy-4-oxo-1,4-dihydropyrimidin-1-yl]propyl]benzonitrile]	0.01 to 10 nM
CCCCc1nc(=O)c(S(=O)(=O)c2ccc(-c3ccnc(F)c3C)cc2)c(O)n1[C@@H](CC)c1ccc(F)c(C#N)c1 [Example 438, 5-[(1S)-1-{2-butyl-5-[4-(2-fluoro-3-methylpyridin-4-yl)benzenesulfonyl]-6-hydroxy-4-oxo-1,4-dihydropyrimidin-1-yl}propyl]-2-fluorobenzonitrile]	0.01 to 10 nM
CCCCc1nc(=O)c(S(=O)(=O)c2ccc(-c3cccnc3C)cc2)c(O)n1[C@@H](CC)c1ccc(F)c(C#N)c1 [Example 439, 5-[(1S)-1-{2-butyl-6-hydroxy-5-[4-(2-methylpyridin-3-yl)benzenesulfonyl]-4-oxo-1,4-dihydropyrimidin-1-yl}propyl]-2-fluorobenzonitrile]	0.01 to 10 nM
CCCCc1nc(=O)c(S(=O)(=O)c2ccc(-c3ccc(F)nc3C)cc2)c(O)n1[C@@H](CC)c1ccc(F)c(C#N)c1 [Example 440, 5-[(1S)-1-{2-butyl-5-[4-(6-fluoro-2-methylpyridin-3-yl)benzenesulfonyl]-6-hydroxy-4-oxo-1,4-dihydropyrimidin-1-yl}propyl]-2-fluorobenzonitrile]	0.01 to 10 nM
CC[C@@H](c1cccc(C#N)c1)n1c(CC2CC2)nc(=O)c(S(=O)(=O)c2ccc(-c3ccncc3C)cc2)c1O [Example 441, 3-[(1S)-1-[2-(cyclopropylmethyl)-6-hydroxy-5-[4-(3-methylpyridin-4-yl)benzenesulfonyl]-4-oxo-1,4-dihydropyrimidin-1-yl]propyl]benzonitrile]	0.01 to 10 nM
CC[C@@H](c1cccc(C#N)c1)n1c(CC2CC2)nc(=O)c(S(=O)(=O)c2ccc(-c3ccnc(F)c3C)cc2)c1O [Example 442, 3-[(1S)-1-[2-(cyclopropylmethyl)-5-[4-(2-fluoro-3-methylpyridin-4-yl)benzenesulfonyl]-6-hydroxy-4-oxo-1,4-dihydropyrimidin-1-yl]propyl]benzonitrile]	0.01 to 10 nM
CC[C@@H](c1cccc(C#N)c1)n1c(CC2CC2)nc(=O)c(S(=O)(=O)c2ccc(-c3cccnc3C)cc2)c1O [Example 443, 3-[(1S)-1-[2-(cyclopropylmethyl)-6-hydroxy-5-[4-(2-methylpyridin-3-yl)benzenesulfonyl]-4-oxo-1,4-dihydropyrimidin-1-yl]propyl]benzonitrile]	0.01 to 10 nM
CC[C@@H](c1cccc(C#N)c1)n1c(CC2CC2)nc(=O)c(S(=O)(=O)c2ccc(-c3ccc(F)nc3C)cc2)c1O [Example 444, 3-[(1S)-1-[2-(cyclopropylmethyl)-5-[4-(6-fluoro-2-methylpyridin-3-yl)benzenesulfonyl]-6-hydroxy-4-oxo-1,4-dihydropyrimidin-1-yl]propyl]benzonitrile]	0.01 to 10 nM
CCOCc1nc(=O)c(S(=O)(=O)c2ccc(-c3cccnc3C)cc2)c(O)n1[C@@H](CC)c1cccc(C#N)c1 [Example 445, 3-[(1S)-1-[2-(ethoxymethyl)-6-hydroxy-5-[4-(2-methylpyridin-3-yl)benzenesulfonyl]-4-oxo-1,4-dihydropyrimidin-1-yl]propyl]benzonitrile]	0.01 to 10 nM
CCCCc1nc(=O)c(S(=O)(=O)c2ccc(-c3ccnc(F)c3C)cc2)c(O)n1[C@@H](CC)c1cc(F)cc(F)c1 [Example 446, 2-butyl-1-[(1S)-1-(3,5-difluorophenyl)propyl]-5-[4-(2-fluoro-3-methylpyridin-4-yl)benzenesulfonyl]-6-hydroxy-1,4-dihydropyrimidin-4-one]	0.01 to 10 nM
CCCCc1nc(=O)c(S(=O)(=O)c2ccc(-c3ccncc3C)cc2)c(O)n1[C@H](c1cccc(C#N)c1)C(C)C [Example 447, 3-[(1S)-1-{2-butyl-6-hydroxy-5-[4-(3-methylpyridin-4-yl)benzenesulfonyl]-4-oxo-1,4-dihydropyrimidin-1-yl}-2-methylpropyl]benzonitrile]	0.01 to 10 nM
CCCCc1nc(=O)c(S(=O)(=O)c2ccc(-c3cccnc3C)cc2)c(O)n1[C@H](c1cccc(C#N)c1)C(C)C [Example 448, 3-[(1S)-1-{2-butyl-6-hydroxy-5-[4-(2-methylpyridin-3-yl)benzenesulfonyl]-4-oxo-1,4-dihydropyrimidin-1-yl}-2-methylpropyl]benzonitrile]	0.01 to 10 nM
CCCCc1nc(=O)c(S(=O)(=O)c2ccc(-c3cccnc3C)cc2)c(O)n1[C@@H](CC)c1cc(F)cc(C#N)c1 [Example 449, 3-[(1S)-1-{2-butyl-6-hydroxy-5-[4-(2-methylpyridin-3-yl)benzenesulfonyl]-4-oxo-1,4-dihydropyrimidin-1-yl}propyl]-5-fluorobenzonitrile]	0.01 to 10 nM
